According to US8710241B2, “Crystalline form of zofenopril calcium” (Generics [UK]Limited, priority 2007, dated 2014):
Where a name gives a salt, the structure may show the parent alone.

Experiments:
[1] = Water vapour sorption isotherm (Surface Measurement Systems DVS-HT); type: physicochemical; conditions: 25° C.; for Maximum water uptake: high/elevated relative humidity levels (greater than 90% rh), calcium salt
Method: Equilibrium water uptake levels of less than 0.5 wt % were observed up to a relative humidity level of 70% rh, which may be considered the uppermost limit of ambient humidity conditions.
Determination of the water vapour sorption isotherms of zofenopril calcium crystalline form D according to the invention and of the prior art form B were performed by Surface Measurement Systems DVS-HT. The resultant isotherms, as shown in FIGS. 4 and 5 respectively, were obtained under the following parameters: • Temperature=25° C. • Humidity profile: Desorption 1: 50-0% relative humidity (rh) in steps of 10% • Adsorption: 0-90% rh in steps of 10%, 95% rh • Desorption 2: 95% rh, 90-50% rh in steps of 10% • Equilibration time per rh stage: 240 min (0% rh), 180 min (all other rh levels)

[2] = DSC and XRPD experiments on polymorphic transition; type: physicochemical; conditions: up to temperatures of ca. 140° C.
Method: The X-ray powder diffraction data was obtained by methods known in the art using a Bruker D8 Advance Powder Diffractometer with scintillation detector under the following parameters: • Reflectance mode • Cu Kα radiation (1.5406 Å) • Scanning range: 2-30 °2θ • Step size: 0.02 °2θ • Time per step: 6s

[3] = TGA, 25-105° C.
Method: The compounds obtained by the processes according to the invention as described above and in the following examples were also subjected to thermogravimetric analysis (TGA). […] The TGA analysis data was obtained using a Mettler-Toledo TGA851e apparatus under the following parameters: • Temperature profile: 25-300° C.@5° C./min • Nitrogen purge gas: 50 ml/min • Aluminium pan: 40 μl, pierced prior to scan

[4] = Conditioning (equilibration) of dried samples, characterised by XRPD; type: physicochemical; conditions: conditioned at 30° C. for 30 minutes under nitrogen after drying
Method: Approximately 100 mg of zofenopril calcium were dried at 50° C. for 120 minutes under a nitrogen flow atmosphere (flow rate: 500 ml/min). The sample was finally conditioned at 30° C. for 30 minutes under the nitrogen gas atmosphere.
The drying processes as detailed in the above examples yield the novel anhydrous form D of zofenopril calcium according to the invention. […] Thus, the compounds prepared by examples 1-5 were determined to be the same crystalline form and were distinct from the prior art forms A, B, and C. Further, the samples were then ‘conditioned’, i.e. they were allowed to equilibrate.

SMILES	Maximum water uptake [1]	Equilibrium water uptake ([1]; up to a relative humidity level of 70% rh)	Re-conversion to hydrate form C upon exposure to water vapour ([1]; water vapour sorption isotherm, 0-95% rh)	Polymorphic transition [2]	Weight loss, equivalent to loss on drying (LOD) [3]	Conversion upon cooling to hydrated form C or another crystalline form [4]
C[C@H](CSC(=O)c1ccccc1)C(=O)N1C[C@@H](Sc2ccccc2)C[C@H]1C(=O)O [form B, (4S)-1-[(2S)-3-(benzoylthio)-2-methylpropionyl]-4-(phenylthio)-L-proline calcium salt, reference compound]	approximately 2.5 wt %	–	–	–	–	–
C[C@H](CSC(=O)c1ccccc1)C(=O)N1C[C@@H](Sc2ccccc2)C[C@H]1C(=O)O [form D, (4S)-1-[(2S)-3-(benzoylthio)-2-methylpropionyl]-4-(phenylthio)-L-proline calcium salt]	ca. 1 wt %	less than 0.5 wt %	does not easily re-convert to hydrate form C	no polymorphic transition	less than 0.5 wt %	no conversion
